According to patent US10829478B2, “5-[3-[piperazin-1-yl]-3-oxo-propyl]-imidazolidine-2,4-dione derivatives as ADAMTS 4 and 5 inhibitors for treating e.g. osteoarthritis” (Galapagos NV, priority 2016, dated 2020):
Like-named read-outs stand apart in the source and are kept apart here.

Legend:
human ADAMTS-5 = human ADAMTS-5 (Homo sapiens (Human), UniProt Q9UNA0); test: hADAMTS-5 TBIS-1 cleavage assay, Protocol 3; type: biochemical; details: 90 min at 37° C., read-out: hADAMTS-5 potency IC50
Protocol: The reaction is initiated by adding to the assay plate TBIS-1 (10 μL, 4.5 μM, Anaspec) in the same buffer.
Finally, the fluorescence is read on the Envision (Perkin Elmer) after an incubation of 90 min at 37° C. (Excitation 485 nm, emission 530).

human MMP13 = human MMP13 (Homo sapiens (Human), UniProt P45452); test: hMMP13 assay, Protocol 1 (390 MMP FRET Substrate I, Chemicon enzyme); type: biochemical; details: Protocol 1, human MMP13 (Chemicon), read-out: hMMP-13 potency IC50
Protocol: Human MMP13 is preactivated by incubated the enzyme in the same buffer complemented with 1 mM freshly prepared p-Aminophenylmercuric acetate (AMPA) for 1 h at 37° C.

human ADAMTS6 = human ADAMTS6 (Homo sapiens (Human), UniProt Q9UKP5); test: hADAMTS-6 fluorescent based protease assay (520 MMP FRET substrate XII); type: biochemical; details: 37° C. for 2 h; read-out: hADAMTS-6 potency IC50
Sequence of human ADAMTS6 (Q9UKP5 other isoform, or with tags, fused parts or gaps): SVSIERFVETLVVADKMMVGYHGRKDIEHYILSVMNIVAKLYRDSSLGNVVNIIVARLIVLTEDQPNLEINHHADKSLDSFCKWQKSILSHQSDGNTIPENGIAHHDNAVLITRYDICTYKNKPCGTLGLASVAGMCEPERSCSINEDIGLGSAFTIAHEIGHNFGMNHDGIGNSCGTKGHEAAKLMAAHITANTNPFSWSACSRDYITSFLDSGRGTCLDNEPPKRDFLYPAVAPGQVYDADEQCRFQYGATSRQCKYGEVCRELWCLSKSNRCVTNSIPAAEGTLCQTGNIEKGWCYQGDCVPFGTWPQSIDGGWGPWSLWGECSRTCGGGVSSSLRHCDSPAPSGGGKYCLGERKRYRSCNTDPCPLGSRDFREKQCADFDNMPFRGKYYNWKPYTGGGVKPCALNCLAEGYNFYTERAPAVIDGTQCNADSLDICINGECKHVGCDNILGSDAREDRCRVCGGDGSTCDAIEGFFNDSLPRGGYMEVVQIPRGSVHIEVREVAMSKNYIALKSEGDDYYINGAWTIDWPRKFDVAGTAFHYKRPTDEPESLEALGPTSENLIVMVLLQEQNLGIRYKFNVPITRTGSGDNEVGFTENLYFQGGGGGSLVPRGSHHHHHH
Outline: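 ADAMTS6 (0.73 nM final) in 25 mM Tris pH 8.0, 0.05% CHAPS, 2.5 mM CaCl2 with compound dilution series (top 20 μM, 1/5 steps). Reaction started with 520 MMP FRET Substrate XII, incubated 2 h at 37 °C. Substrate cleavage read by fluorescence ex485/em530; IC50 determined.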

rnADAMTS-5 (1-564-6H) = rnADAMTS-5 (1-564-6H) (Rattus norvegicus (Rat), UniProt Q6TY19); test: Rat ADAMTS-5 TBIS-1 cleavage assay; type: biochemical; details: 120 min at 37° C.; read-out: Rat ADAMTS-5 potency IC50
Sequence of rnADAMTS-5 (1-564-6H) (Q6TY19 entry or part of it): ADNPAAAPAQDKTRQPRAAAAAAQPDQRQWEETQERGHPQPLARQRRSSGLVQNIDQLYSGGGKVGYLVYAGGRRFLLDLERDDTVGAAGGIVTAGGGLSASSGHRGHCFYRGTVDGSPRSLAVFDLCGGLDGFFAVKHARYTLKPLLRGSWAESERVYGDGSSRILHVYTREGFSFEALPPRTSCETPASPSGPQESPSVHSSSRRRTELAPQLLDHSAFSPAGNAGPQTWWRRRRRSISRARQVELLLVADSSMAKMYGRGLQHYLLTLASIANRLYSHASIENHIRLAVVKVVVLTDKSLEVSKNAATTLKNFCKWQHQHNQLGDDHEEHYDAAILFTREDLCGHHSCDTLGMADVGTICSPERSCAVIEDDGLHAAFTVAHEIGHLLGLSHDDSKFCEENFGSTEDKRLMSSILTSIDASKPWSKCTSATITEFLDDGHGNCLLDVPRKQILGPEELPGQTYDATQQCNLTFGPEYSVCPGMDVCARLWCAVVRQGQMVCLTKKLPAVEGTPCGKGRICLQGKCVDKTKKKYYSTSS

human ADAMTS4 = human ADAMTS4 (Homo sapiens (Human), UniProt O75173); test: hADAMTS-4 TBIS-1 cleavage assay, Protocol 2; type: biochemical
Sequence of human ADAMTS4 (O75173 213-837): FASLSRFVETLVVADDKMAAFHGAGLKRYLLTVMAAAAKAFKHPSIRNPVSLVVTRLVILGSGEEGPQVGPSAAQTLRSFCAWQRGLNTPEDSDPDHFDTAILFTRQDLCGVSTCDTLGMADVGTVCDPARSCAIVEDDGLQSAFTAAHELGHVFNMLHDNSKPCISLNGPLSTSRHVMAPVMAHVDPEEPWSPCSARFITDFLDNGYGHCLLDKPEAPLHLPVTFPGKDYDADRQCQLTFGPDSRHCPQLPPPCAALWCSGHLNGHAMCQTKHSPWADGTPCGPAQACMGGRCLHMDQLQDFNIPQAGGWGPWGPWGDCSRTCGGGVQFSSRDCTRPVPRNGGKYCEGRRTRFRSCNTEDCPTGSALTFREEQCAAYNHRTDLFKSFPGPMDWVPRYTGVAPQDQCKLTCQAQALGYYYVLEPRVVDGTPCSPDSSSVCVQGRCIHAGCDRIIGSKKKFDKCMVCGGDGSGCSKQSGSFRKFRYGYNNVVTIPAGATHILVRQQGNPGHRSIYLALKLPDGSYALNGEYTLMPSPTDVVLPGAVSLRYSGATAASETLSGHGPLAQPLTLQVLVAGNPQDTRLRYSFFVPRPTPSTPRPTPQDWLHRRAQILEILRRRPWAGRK

human TACE = human TACE (Homo sapiens (Human), UniProt P78536); test: biochemical
Sequence of human TACE (P78536 215-671): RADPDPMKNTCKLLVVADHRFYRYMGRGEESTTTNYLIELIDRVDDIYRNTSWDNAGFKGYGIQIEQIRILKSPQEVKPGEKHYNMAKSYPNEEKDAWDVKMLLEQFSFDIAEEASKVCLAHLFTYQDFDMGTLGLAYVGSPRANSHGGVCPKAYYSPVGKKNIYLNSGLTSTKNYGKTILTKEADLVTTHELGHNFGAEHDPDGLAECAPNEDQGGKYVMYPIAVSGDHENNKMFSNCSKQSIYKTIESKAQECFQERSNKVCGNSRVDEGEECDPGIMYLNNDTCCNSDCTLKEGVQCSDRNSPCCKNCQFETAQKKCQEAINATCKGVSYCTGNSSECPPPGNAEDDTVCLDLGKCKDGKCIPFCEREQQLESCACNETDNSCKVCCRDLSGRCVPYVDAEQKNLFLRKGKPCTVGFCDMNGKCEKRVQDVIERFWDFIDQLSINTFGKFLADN
Protocol: Finally, the fluorescence is read on the Envision (Perkin Elmer) after an incubation of 75 min at room temperature (Excitation 485 nm, Emission 530).

[1] = Protocol 2, 180 min at 37° C., read-out: ADAMTS4 potency IC50

Sequence of human ADAMTS-5 (Q9UNA0 262-930): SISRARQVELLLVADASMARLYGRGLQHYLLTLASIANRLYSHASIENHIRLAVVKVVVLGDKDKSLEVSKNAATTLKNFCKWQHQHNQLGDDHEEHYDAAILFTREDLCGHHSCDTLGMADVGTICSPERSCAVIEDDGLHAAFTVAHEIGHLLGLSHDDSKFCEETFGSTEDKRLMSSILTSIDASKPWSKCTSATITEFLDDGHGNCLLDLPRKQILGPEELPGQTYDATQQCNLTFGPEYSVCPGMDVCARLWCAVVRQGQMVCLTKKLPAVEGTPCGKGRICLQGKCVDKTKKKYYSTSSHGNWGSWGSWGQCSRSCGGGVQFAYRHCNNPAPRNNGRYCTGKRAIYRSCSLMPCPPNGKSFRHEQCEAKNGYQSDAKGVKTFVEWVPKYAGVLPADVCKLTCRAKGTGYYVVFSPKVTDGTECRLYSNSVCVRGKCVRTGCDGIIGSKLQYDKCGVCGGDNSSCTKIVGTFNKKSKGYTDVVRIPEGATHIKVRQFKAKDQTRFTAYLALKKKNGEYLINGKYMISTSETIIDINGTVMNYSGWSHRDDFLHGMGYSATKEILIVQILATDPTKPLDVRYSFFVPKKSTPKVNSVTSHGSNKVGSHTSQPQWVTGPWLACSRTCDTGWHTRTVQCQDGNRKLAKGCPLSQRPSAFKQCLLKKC

Structure (SMILES) | IC50 (human ADAMTS-5) | IC50 (human MMP13) | IC50 (human ADAMTS6) | IC50 (rnADAMTS-5 (1-564-6H)) | IC50 (human ADAMTS4) | IC50 (human TACE) | IC50 (human ADAMTS4; [1])
COc1cc(N2CCN(C(=O)[C@@H](C)C[C@@]3(C)NC(=O)NC3=O)CC2)cc(OC)c1Cl (stereo in doubt) [Cpd 40, 5-[3-[4-(4-chloro-3,5-dimethoxy-phenyl)piperazin-1-yl]-2-methyl-3-oxo-propyl]-5-methyl-imidazolidine-2,4-dione] | 50 to 100 nM | > 100 nM | 0.001 to 25 nM | > 100 nM | 25 to 50 nM | > 100 nM | –
COc1cc(N2CCN(C(=O)CCC3(C4CC4)NC(=O)NC3=O)C[C@@H]2C)cc(F)c1F (stereo partly drawn) [Cpd 21, 5-cyclopropyl-5-[3-[(3S)-4-(3,4-difluoro-5-methoxy-phenyl)-3-methyl-piperazin-1-yl]-3-oxo-propyl]imidazolidine-2,4-dione] | 0.001 to 25 nM | > 100 nM | 0.001 to 25 nM | 0.001 to 25 nM | 50 to 100 nM | > 100 nM | –
COc1cc(F)cc(N2CCN(C(=O)CCC3(c4cccnc4)NC(=O)NC3=O)CC2)c1 (stereo not drawn) [Cpd 23, 5-[3-[4-(3-fluoro-5-methoxy-phenyl)piperazin-1-yl]-3-oxo-propyl]-5-(3-pyridyl)imidazolidine-2,4-dione] | 50 to 100 nM | > 100 nM | 25 to 50 nM | 50 to 100 nM | 50 to 100 nM | > 100 nM | –
COc1cc(OC)cc(N2CCN(C(=O)CCC3(C)NC(=O)NC3=O)C[C@@H]2C)c1 (stereo partly drawn) [Cpd 25, 5-[3-[(3 S)-4-(3,5-dimethoxyphenyl)-3-methyl-piperazin-1-yl]-3-oxo-propyl]-5-methyl-imidazolidine-2,4-dione] | > 100 nM | > 100 nM | 25 to 50 nM | > 100 nM | – | > 100 nM | > 100 nM
COc1cc(F)cc(N2CCN(C(=O)[C@@H](C)C[C@@]3(C4CC4)NC(=O)NC3=O)CC2)c1 [Cpd 26, (5 S)-5-cyclopropyl-5-[(2S)-3-[4-(3-fluoro-5-methoxy-phenyl)piperazin-1-yl]-2-methyl-3-oxo-propyl]imidazolidine-2,4-dione] | 0.001 to 25 nM | > 100 nM | 0.001 to 25 nM | 0.001 to 25 nM | 0.001 to 25 nM | > 100 nM | –
COc1cc(F)cc(N2CCN(C(=O)[C@@H](C)C[C@@]3(C)NC(=O)NC3=O)CC2)c1 [Cpd 27, (5R)-5-[(2S)-3-[4-(3-fluoro-5-methoxy-phenyl)piperazin-1-yl]-2-methyl-3-oxo-propyl]-5-methyl-imidazolidine-2,4-dione] | 25 to 50 nM | > 100 nM | 0.001 to 25 nM | 25 to 50 nM | 25 to 50 nM | > 100 nM | –
COc1cc(N2CCN(C(=O)CCC3(c4cccnc4)NC(=O)NC3=O)CC2)cc(F)c1F (stereo not drawn) [Cpd 28, 5-[3-[4-(3,4-difluoro-5-methoxy-phenyl)piperazin-1-yl]-3-oxo-propyl]-5-(3-pyridyl)imidazolidine-2,4-dione] | > 100 nM | > 100 nM | 25 to 50 nM | 50 to 100 nM | – | > 100 nM | > 100 nM
COc1cc(N2CCN(C(=O)[C@@H](C)C[C@@]3(C4CC4)NC(=O)NC3=O)C[C@@H]2C)cc(F)c1F [Cpd 29, 5-cyclopropyl-5-[(2S)-3-[(3S)-4-(3,4-difluoro-5-methoxy-phenyl)-3-methyl-piperazin-1-yl]-2-methyl-3-oxo-propyl]imidazolidine-2,4-dione] | 25 to 50 nM | > 100 nM | 0.001 to 25 nM | 25 to 50 nM | 25 to 50 nM | > 100 nM | –
COc1cc(N2CCN(C(=O)CCC3(C)NC(=O)NC3=O)C[C@@H]2C)cc(OC)c1Cl (stereo partly drawn) [Cpd 30, 5-[3-[(3 S)-4-(4-chloro-3,5-dimethoxy-phenyl)-3-methyl-piperazin-1-yl]-3-oxo-propyl]-5-methyl-imidazolidine-2,4-dione] | > 100 nM | > 100 nM | 0.001 to 25 nM | > 100 nM | – | > 100 nM | > 100 nM
COc1cc(N2CCN(C(=O)CCC3(C)NC(=O)NC3=O)CC2)cc(OC)c1Cl (stereo not drawn) [Cpd 31, 5-[3-[4-(4-chloro-3,5-dimethoxy-phenyl)piperazin-1-yl]-3-oxo-propyl]-5-methyl-imidazolidine-2,4-dione] | > 100 nM | > 100 nM | 0.001 to 25 nM | > 100 nM | – | > 100 nM | > 100 nM
